Reference: patent US8758816B2, “Compositions comprising azelastine and methods of use thereof” (priority 2004, dated 2014)
Where a name gives a salt, the structure may show the parent alone.

Test system: patients with seasonal allergic rhinitis (SAR)
Assay: MP 428 two-week randomized double-blind study: Total Nasal Symptom Score (TNSS), change from baseline
Format: in vivo, human
Set-up: key to Change from Baseline in AM TNSS, Mean / Change from Baseline in AM TNSS, LS Mean / Change from Baseline in AM TNSS, Median: TNSS sum of 4 symptoms each 0-3 (0=none, 3=severe); change from baseline
Protocol: A two-week, randomized, double-blind study, which evaluated the effects of the co-administration of ASTELIN® (azelastine hydrochloride (HCl)) and FLONASE® (fluticasone propionate) compared to either product alone in patients with seasonal allergic rhinitis (SAR) was conducted during the 2006 Texas mountain cedar season. After a 5-day placebo lead-in period, 151 patients with moderate-to-severe allergic rhinitis symptoms were randomized to either: (1) (49 total patients) ASTELIN® (azelastine hydrochloride (HCl)) plus placebo saline nasal spray 2 sprays per nostril, 15 minutes apart, twice daily (AM & PM); (2) (50 total patients) FLONASE® (fluticasone propionate) plus placebo saline nasal spray, 2 sprays per nostril, 15 minutes apart, once daily (AM) and two sessions of placebo saline nasal spray, 2 sprays per nostril, 15 minutes apart (PM); or (3) (52 total patients) the co-administration of ASTELIN® (azelastine hydrochloride (HCl)) 2 sprays per nostril plus FLONASE® (fluticasone propionate) 2 sprays per nostril (AM), 15 minutes apart, and ASTELIN® (azelastine hydrochloride (HCl)) 2 sprays per nostril plus placebo saline nasal spray, 15 minutes apart, (PM) for a 2-week double-blind treatment period.
The primary efficacy variable was the change from baseline in the Total Nasal Symptom Score (TNSS), which comprised sneezing, itchy nose, runny nose, and nasal congestion (individual symptoms scores were assigned a value between 0 and 3, where 0=no symptoms and 3=severe symptoms). This study was not statistically designed to assess the differences between ASTELIN® and FLONASE®.

[1] = Day 2, Intent-to-Treat Population
[2] = Day 3, Intent-to-Treat Population
[3] = Day 4, Intent-to-Treat Population
[4] = Day 5, Intent-to-Treat Population

## CN1CCCC(n2nc(Cc3ccc(Cl)cc3)c3ccccc3c2=O)CC1 (racemic) [Azelastine, (±)-1-(2H)-phthalazinone, 4-[(4-chlorophenyl)methyl]-2-(hexahydro-1-methyl-1H-azepin-4-yl)-, mono-hydrochloride]
All Randomized Patients
  Primary Reason for Discontinuation From Study: Treatment Failure: 0 (0.0) N (%)
[1]
  Change from Baseline in AM TNSS, LS Mean: −1.46
  Change from Baseline in AM TNSS, Mean: −1.48
  Change from Baseline in AM TNSS, Median: −1.25
  Change from Baseline in AM and PM Combined TNSS, Mean: −3.23
  Change from Baseline in AM and PM Combined TNSS, Median: −2.67
  Change from Baseline in PM TNSS, LS Mean: −1.65
  Change from Baseline in PM TNSS, Mean: −1.76
  Change from Baseline in PM TNSS, Median: −1.00
  Percent Change from Baseline in AM TNSS, LS Mean: −15.45%
  Percent Change from Baseline in AM TNSS, Mean: −15.79%
  Percent Change from Baseline in AM TNSS, Median: −14.29%
  Percent Change from Baseline in AM and PM Combined TNSS, LS Mean: −16.31%
  Percent Change from Baseline in AM and PM Combined TNSS, Mean: −16.93%
  Percent Change from Baseline in AM and PM Combined TNSS, Median: −12.31%
  Percent Change from Baseline in PM TNSS, LS Mean: −17.15%
  Percent Change from Baseline in PM TNSS, Mean: −17.76%
  Percent Change from Baseline in PM TNSS, Median: −10.00%
Day 2, Intent-to-Treat Population, ANCOVA model
  Change from Baseline in AM and PM Combined TNSS, LS Mean: −3.10
Day 2, Per-Protocol Population
  Change from Baseline in AM and PM Combined TNSS, LS Mean: −3.08
  Change from Baseline in AM and PM Combined TNSS, Mean: −3.23
  Change from Baseline in AM and PM Combined TNSS, Median: −2.67
  Percent Change from Baseline in AM and PM Combined TNSS, LS Mean: −16.25%
  Percent Change from Baseline in AM and PM Combined TNSS, Mean: −16.93%
  Percent Change from Baseline in AM and PM Combined TNSS, Median: −12.31%
[2]
  Change from Baseline in AM TNSS, LS Mean: −1.28
  Change from Baseline in AM TNSS, Mean: −1.29
  Change from Baseline in AM TNSS, Median: −0.80
  Change from Baseline in AM and PM Combined TNSS, Mean: −3.28
  Change from Baseline in AM and PM Combined TNSS, Median: −1.67
  Change from Baseline in PM TNSS, LS Mean: −1.91
  Change from Baseline in PM TNSS, Mean: −1.98
  Change from Baseline in PM TNSS, Median: −1.50
  Percent Change from Baseline in AM TNSS, LS Mean: −13.37%
  Percent Change from Baseline in AM TNSS, Mean: −13.75%
  Percent Change from Baseline in AM TNSS, Median: −7.89%
  Percent Change from Baseline in AM and PM Combined TNSS, LS Mean: −16.85%
  Percent Change from Baseline in AM and PM Combined TNSS, Mean: −17.08%
  Percent Change from Baseline in AM and PM Combined TNSS, Median: −8.11%
  Percent Change from Baseline in PM TNSS, LS Mean: −19.66%
  Percent Change from Baseline in PM TNSS, Mean: −20.01%
  Percent Change from Baseline in PM TNSS, Median: −15.15%
Day 3, Intent-to-Treat Population, ANCOVA model
  Change from Baseline in AM and PM Combined TNSS, LS Mean: −3.21
Day 3, Per-Protocol Population
  Change from Baseline in AM and PM Combined TNSS, LS Mean: −3.19
  Change from Baseline in AM and PM Combined TNSS, Mean: −3.28
  Change from Baseline in AM and PM Combined TNSS, Median: −1.67
  Percent Change from Baseline in AM and PM Combined TNSS, LS Mean: −16.85%
  Percent Change from Baseline in AM and PM Combined TNSS, Mean: −17.08%
  Percent Change from Baseline in AM and PM Combined TNSS, Median: −8.11%
[3]
  Change from Baseline in AM TNSS, LS Mean: −1.79
  Change from Baseline in AM TNSS, Mean: −1.76
  Change from Baseline in AM TNSS, Median: −1.33
  Change from Baseline in AM and PM Combined TNSS, Mean: −3.93
  Change from Baseline in AM and PM Combined TNSS, Median: −2.92
  Change from Baseline in PM TNSS, LS Mean: −2.09
  Change from Baseline in PM TNSS, Mean: −2.17
  Change from Baseline in PM TNSS, Median: −2.20
  Percent Change from Baseline in AM TNSS, LS Mean: −18.88%
  Percent Change from Baseline in AM TNSS, Mean: −18.84%
  Percent Change from Baseline in AM TNSS, Median: −14.89%
  Percent Change from Baseline in AM and PM Combined TNSS, LS Mean: −20.41%
  Percent Change from Baseline in AM and PM Combined TNSS, Mean: −20.50%
  Percent Change from Baseline in AM and PM Combined TNSS, Median: −14.29%
  Percent Change from Baseline in PM TNSS, LS Mean: −21.42%
  Percent Change from Baseline in PM TNSS, Mean: −21.99%
  Percent Change from Baseline in PM TNSS, Median: −23.08%
Day 4, Intent-to-Treat Population, ANCOVA model
  Change from Baseline in AM and PM Combined TNSS, LS Mean: −3.89
Day 4, Per-Protocol Population
  Change from Baseline in AM and PM Combined TNSS, LS Mean: −3.87
  Change from Baseline in AM and PM Combined TNSS, Mean: −3.93
  Change from Baseline in AM and PM Combined TNSS, Median: −2.92
  Percent Change from Baseline in AM and PM Combined TNSS, LS Mean: −20.39%
  Percent Change from Baseline in AM and PM Combined TNSS, Mean: −20.50%
  Percent Change from Baseline in AM and PM Combined TNSS, Median: −14.29%
[4]
  Change from Baseline in AM TNSS, LS Mean: −2.25
  Change from Baseline in AM TNSS, Mean: −2.23
  Change from Baseline in AM TNSS, Median: −1.67
  Change from Baseline in AM and PM Combined TNSS, Mean: −4.48
  Change from Baseline in AM and PM Combined TNSS, Median: −3.67
  Change from Baseline in PM TNSS, LS Mean: −2.19
  Change from Baseline in PM TNSS, Mean: −2.25
  Change from Baseline in PM TNSS, Median: −1.20
  Percent Change from Baseline in AM TNSS, LS Mean: −23.57%
  Percent Change from Baseline in AM TNSS, Mean: −23.62%
  Percent Change from Baseline in AM TNSS, Median: −15.79%
  Percent Change from Baseline in AM and PM Combined TNSS, LS Mean: −23.20%
